These results are taken from patent US20240181007A1, “COMPOSITIONS AND METHODS FOR TREATING PULMONARY HYPERTENSION” (Acceleron Pharma Inc., priority 2021, published 2024).

In this experiment the test system is ZSF1-SU rats. Briefly: HFpEF induced PH rat model, ZSF1 rats challenged with semaxanib (Example 10). It counts as in vivo. Particulars: relative to ZSF1-SU/PBS. The protocol:
The effects of an ActRIIA-mFc fusion polypeptide (SEQ ID NO: 56) was examined in a rat model of left ventricular diastolic dysfunction (also referred to as HEpEF) group 2 (subgroup 2.2) pulmonary hypertension (PH). In this model, ZSF1-Lepr^faLepr^cp/Crl rats were challenged with semaxanib to induce HFpEF-PH(l).
Forty ZSF1 Lepr^faLepr^cp/Crl male […] (8 wks old) and five lean rats were subcutaneously administered with a single dose of semaxanib (100 mg/kg) at day 0, and five lean rats were included as normal control. Six weeks after semaxanib (SU5416) treatment, Thirty-six ZSF1 Lepr^faLepr^cp/Crl rats were randomized into four groups: i) nine rats were injected subcutaneously with vehicle control (phosphate buffered saline (PBS)), twice weekly for 8 weeks starting from day 42 after semaxanib treatment, “ZSF1-SU/PBS”; a ii) ten rats were injected subcutaneously with ActRIIA-mFc at a dose of 1 mg/kg twice weekly for 8 weeks starting from day 42 after semaxanib treatment, “ZSF1-SU/ActRIIA-mFc 1 mpk”: a iii) nine rats were injected subcutaneously with ActRIIA-mFc at a dose of 3 mg/kg twice weekly for 8 weeks starting from day 42 after semaxanib treatment, “ZSF1-SU/ActRIIA-mFc 3 mpk”; and a iv) eight rats were injected subcutaneously with ActRIIA-mFc at a dose of 10 mg/kg twice weekly for 8 weeks starting from day 42 after semaxanib treatment, “ZSF1-SU/ActRIIA-mFc 10 mpk”. At the end of the study, echocardiography and pressure-volume catheter were performed to measure left and right ventricular remodeling and functional changes before animals were euthanized for heart and lung collection. Hearts and lungs of each rat were weighed, fixed in 10% formalin, embedded in paraffin, and sectioned for Masson's trichrome stain to assess fibrosis. Serum and urine samples were collected at the end of the study.
Rats were fasted overnight to measure fasting blood glucose levels at week 14 (before treatments started), week 18 (4 weeks after treatments), and week 22, and oral glucose tolerance test was performed at week 22. Blood glucose levels were measured with a glucometer after bleeding tail vein with a 27G needle. To prepare oral glucose tolerance test, 40% glucose stock solution run through a filter to sterilize it. After fasting overnight, rat body weight was measured. Blood glucose level was detected. Then 40% glucose solution was administered via oral gavage according to body weight (2 g/kg). Blood glucose levels were measured at 30, 60, 90, 120 minutes.
Prior to euthanization, in vivo cardiac function was assessed by transthoracic echocardiography (Acuson P300, 18 MHz linear transducer; Siemens) in lightly anesthetized rats as described (2). From left ventricle short axis view, M-mode echocardiogram was acquired to measure interventricular septal thickness at end diastole (IVSd), left ventricular posterior wall thickness at end diastole (LVPWd), left ventricular end diastolic diameter (LVEDD), and left ventricular end systolic diameter (LVESD). Left ventricular mass (LVM) was assessed by the equation: 1.05 [(LVEDD+LVPTD+IVSd)^3-LVEDD^3]. Early diastolic filling peak velocity (E), early diastolic mitral annular velocity (E′), and isovolumetric relaxation time (IVRT) were measured from the medial or septal wall at the mitral valve level from tissue Doppler image. LV diastolic function was assessed by measuring the E/E′ ratio and IVRT. Pulmonary arterial acceleration time (PAAT), a parameter of right ventricular function, was also measured.
Fourteen weeks after semaxanib treatment, rats were anesthetized with ketamine (100 mg/kg) and xylazine (5 mg/kg) at the end of the experiment to evaluate cardiac and pulmonary hemodynamics. The respiration was supported by a small animal ventilator. Thoracotomy was made through 4-5 intercostal space, and the heart was exposed. A pressure-volume catheter (2.0-Fr, SPR-869, Millar Instruments, Houston, TX, USA) was be inserted into the left ventricle and right ventricle from the apex. […]

Setting [1] is: 1 mpk, 3 mpk and 10 mpk, FIGS. 41-43.

Regarding “ActRIIA-mFc: ActRIIA-mFc fusion polypeptide (SEQ ID NO: 56); extracellular domain fused to murine IgG2a Fc domain with a linker”, under setting [1], the fasting blood glucose result is “significantly reduced fasting blood glucose”, the “glucose level in urine” value was “decreased glucose level in urine” and the “glucose tolerance (oral glucose tolerance test)” value is recorded as “improved glucose tolerance”. Besides, the “E/E′ ratio” value (3 mpk and 10 mpk s.c. twice weekly for 8 weeks from day 42 after semaxanib, FIG. 29) is “reduced E/E′ ratio”. Moreover, the IVRT result (3 mpk and 10 mpk s.c. twice weekly for 8 weeks from day 42 after semaxanib, FIG. 30) is listed as “decreased IVRT”. Further, for the setting “3 mpk and 10 mpk s.c. twice weekly for 8 weeks from day 42 after semaxanib, FIG. 34”, the RVFWT entry is “significantly reduced elevated RVFWT”. Also, under “3 mpk and 10 mpk s.c. twice weekly for 8 weeks from day 42 after semaxanib, FIG. 35”, the PAAT entry is recorded as “reduced PAAT”. Besides, for the setting “3 mpk and 10 mpk s.c. twice weekly for 8 weeks from day 42 after semaxanib, FIG. 36”, the RVSP result is recorded as “reduced elevated RVSP”. Where the note is “3 mpk and 10 mpk s.c. twice weekly for 8 weeks from day 42 after semaxanib, FIGS. 31-33”, the “left heart remodeling (HW/TL, IVSd, LVM)” value is on record as “significantly reduced left heart remodeling”. Besides, where the note is “s.c. twice weekly for 8 weeks, dose not given, FIG. 37”, the “fibrosis in LV” value is “significantly reduced the increased fibrosis”. Further, the “fibrosis in RV” value (s.c. twice weekly for 8 weeks, dose not given, FIG. 38) is on record as “significantly reduced the increased fibrosis”. In addition, the fibrosis in lung entry (s.c. twice weekly for 8 weeks, dose not given, FIG. 39) is reported as “significantly reduced the increased fibrosis”.
